# Where two headings read alike, the source gives them in different places.
# How the values were obtained:
# [1] = molecular target: T1, opioid δ receptor (Homo sapiens, UniProt P41143); assay: Opioid receptor functional test (Lance Ultra cAMP Kit), δ receptor agonist activity; type: cell-based; conditions: for Emax: read-out: δ Receptor Emax
# T1 construct: expressed in transfected cells; host or cells: CHO cells
# Procedure: (§1) Functional activities of the compounds of the present invention for the μ, […], and κ opioid receptors were investigated.
# (§2) The test was performed according to a prescribed method by using Lance Ultra cAMP Kit (Perkin-Elmer). The agonist activities were evaluated as follows. The CHO cells expressing each opioid receptor (μ, δ, or κ) and a test compound were reacted in an assay buffer (1×HBSS, […], pH 7.4, […] IBMX (isobutylmethylxanthine), 7.5% BSA) for 30 minutes in the presence of 10 μM forskolin. Then, the cAMP detection reagent included in the kit was added, and after 1 hour, time-resolved fluorescence measurements were performed by using the EnVision plate reader (Perkin-Elmer). A dose-responce curve of the test compound was obtained from fluorescence values measured at 665 nm, and EC50 value and Emax value were calculated. The Emax value was calculated as a ratio of the maximum responce of the test compound with respect to the maximum responce of each control agent (SNC80 for δ, DAMGO for μ, U-69593 for κ) taken as 100%.
# (§3) 1): Hydrochloride was used.
# [2] = molecular target: T2, opioid μ receptor (Homo sapiens, UniProt P35372); assay: Opioid receptor functional test (Lance Ultra cAMP Kit), μ receptor agonist activity; type: cell-based; conditions: hydrochloride was used; for Emax at 10 µM: maximum concentration (10 μM), reaction did not reach the maximum, EC50 N.C., relative to DAMGO, read-out: μ Receptor responce rate at the maximum concentration (reference value); for EC50: CHO cells expressing μ opioid receptor, 10 μM forskolin, cAMP; for Emax: maximum response relative to DAMGO taken as 100%, read-out: μ Receptor Emax
# T2 construct: expressed in transfected cells; host or cells: CHO cells
# Procedure: as §1, §2, §3
# [3] = molecular target: T3, opioid κ receptor (Homo sapiens, UniProt P41145); assay: Opioid receptor functional test (Lance Ultra cAMP Kit), κ receptor agonist activity; type: cell-based; conditions: hydrochloride was used; for Emax at 10 µM: maximum concentration (10 μM), reaction did not reach the maximum, EC50 N.C., relative to U-69593, read-out: κ Receptor responce rate at the maximum concentration (reference value); for EC50: CHO cells expressing κ opioid receptor, 10 μM forskolin, cAMP, read-out: κ Receptor EC50 value; for Emax: maximum response relative to U-69593 taken as 100%, read-out: κ Receptor Emax
# T3 construct: expressed in transfected cells; host or cells: CHO cells
# Procedure: as §1, §2, §3
# [4] = test system: ICR male mice; assay: Analgesic activity (acetic acid writhing method); type: in vivo; conditions: Mus musculus, sc; 3 mg/kg subcutaneous, 0.6% acetic acid i.p., writhing inhibition rate vs solvent group; hydrochloride was used; read-out: Inhibitory activities against writhing
# Procedure: ICR male mice were used as groups each consisting of eight mice. Twenty minutes after the subcutaneous administration of a test compound (3 mg/kg), a 0.6% aqueous solution of acetic acid was intraperitoneally administered (0.1 mL/10 g body weight), and from the point 5 minutes after the administration, number of writhing observed over 20 minutes was counted. The analgesic activity was evaluated on the basis of the writhing inhibition rate (% inhibition) of the test compound administration group with respect to the writhing number of the solvent administration group.
# 1): Hydrochloride was used. 2): The evaluation results of the inhibitory activities against writhing were classified on the basis of the inhibition rate as follows. ≧90%, +++; 70≦%<90, ++; 50≦%<70, +
# [5] = CHO cells expressing δ opioid receptor, 10 μM forskolin, cAMP, hydrochloride was used, read-out: δ Receptor EC50 value
# [6] = maximum response relative to SNC80 taken as 100%, hydrochloride was used
# T1 sequence (P41143 whole entry): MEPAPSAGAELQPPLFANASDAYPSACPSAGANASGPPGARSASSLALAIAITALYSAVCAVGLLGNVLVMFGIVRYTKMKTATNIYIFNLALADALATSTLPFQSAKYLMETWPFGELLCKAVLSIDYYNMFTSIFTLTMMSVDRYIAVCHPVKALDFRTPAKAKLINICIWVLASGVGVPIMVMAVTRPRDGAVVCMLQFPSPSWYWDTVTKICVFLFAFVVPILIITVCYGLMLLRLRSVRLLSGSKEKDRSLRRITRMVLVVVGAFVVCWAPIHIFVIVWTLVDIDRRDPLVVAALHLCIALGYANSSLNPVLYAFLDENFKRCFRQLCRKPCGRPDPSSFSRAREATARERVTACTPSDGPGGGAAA
# T3 sequence (P41145 whole entry): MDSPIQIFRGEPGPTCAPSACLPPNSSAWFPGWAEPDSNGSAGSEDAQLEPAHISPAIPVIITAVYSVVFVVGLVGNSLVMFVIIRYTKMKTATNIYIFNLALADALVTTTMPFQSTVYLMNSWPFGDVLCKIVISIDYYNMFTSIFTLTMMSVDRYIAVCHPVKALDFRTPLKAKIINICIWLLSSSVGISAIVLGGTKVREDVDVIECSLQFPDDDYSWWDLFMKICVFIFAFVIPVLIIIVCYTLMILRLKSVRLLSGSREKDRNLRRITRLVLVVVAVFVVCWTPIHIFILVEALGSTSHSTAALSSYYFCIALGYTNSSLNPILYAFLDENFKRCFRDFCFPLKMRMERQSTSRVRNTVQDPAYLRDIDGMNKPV
# T2 sequence (P35372 whole entry): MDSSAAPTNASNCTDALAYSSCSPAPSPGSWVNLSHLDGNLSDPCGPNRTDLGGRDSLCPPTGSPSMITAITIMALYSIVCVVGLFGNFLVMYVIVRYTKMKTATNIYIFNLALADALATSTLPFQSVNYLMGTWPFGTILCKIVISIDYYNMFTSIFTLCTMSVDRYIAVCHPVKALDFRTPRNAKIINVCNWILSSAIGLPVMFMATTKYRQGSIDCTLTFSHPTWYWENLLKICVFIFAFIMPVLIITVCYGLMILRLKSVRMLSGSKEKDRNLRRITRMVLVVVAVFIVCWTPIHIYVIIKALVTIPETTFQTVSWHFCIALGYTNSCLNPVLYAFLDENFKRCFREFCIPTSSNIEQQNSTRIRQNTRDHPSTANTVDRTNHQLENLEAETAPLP
SMILES,EC50 [1],Emax [1],Emax at 10 µM [2],Emax at 10 µM [3],inhibition in vivo at 3 mg/kg [4],"EC50 [1, 5]","Emax [1, 6]",EC50 [3],Emax [3],EC50 [2],Emax [2]
"O=C(c1ccccc1)N1C[C@H]2C[C@@]34CC[C@@H]1[C@@H]2[C@@]31CCN(CC2CC2)[C@@H]4Cc2ccc(O)cc21 [Compound 78, [(1S,3aR,5aS,6R,11bR,11cS)-14-(cyclopropylmethyl)-10-hydroxy-1,2,3a,4,5,6,7,11c-octahydro-3H-6,11b-(iminoethano)-1,5a-methanonaphtho[1,2-e]indol-3-yl](phenyl)methanone]",< 1 nM,83%,4.7%,5.5%,50 to 70%,–,–,–,–,–,–
"O=C(c1cccc(Cl)c1)N1C[C@H]2C[C@@]34CC[C@@H]1[C@@H]2[C@@]31CCN(CC2CC2)[C@@H]4Cc2ccc(O)cc21 [Compound 79, (3-chlorophenyl)[(1S,3aR,5aS,6R,11bR,11cS)-14-(cyclopropylmethyl)-10-hydroxy-1,2,3a,4,5,6,7,11c-octahydro-3H-6,11b-(iminoethano)-1,5a-methanonaphtho[1,2-e]indol-3-yl]methanone]",–,–,8.8%,9.6%,70 to 90%,< 1 nM,75%,–,–,–,–
CC(C)NC(=O)N1C[C@H]2CC34CCC1C2C31CCN(CC2CC2)C4Cc2ccc(O)cc21 (stereo partly shown) [Compound 159],–,–,2.8%,–,70 to 90%,< 1 nM,76%,< 1 nM,37%,–,–
"Cc1cc(C)nc(N2C[C@H]3C[C@@]45CCC2C3[C@@]42CCN(CC3CC3)[C@@H]5Cc3ccc(O)cc32)n1 (stereo partly drawn) [Compound 223, (1S,5aS,6R,11bR)-14-(cyclopropylmethyl)-3-(4,6-dimethylpyrimidin-2-yl)-2,3,3a,4,5,6,7,11c-octahydro-1H-6,11b-(iminoethano)-1,5a-methanonaphtho[1,2-e]indol-10-ol]",–,–,–,–,≥ 90%,–,–,–,–,–,–
Oc1ccc2c(c1)C13CCN(CC4CC4)C(C2)C12CCC1C3[C@@H](CN1c1cc(F)ccn1)C2 (stereo partly shown) [Compound 239],–,–,–,–,≥ 90%,–,–,–,–,–,–
Oc1ccc2c(c1)C13CCN(CC4CC4)C(C2)C12CCC1C3[C@@H](CN1c1ccc3ccccc3n1)C2 (stereo partly shown) [Compound 243],–,–,–,–,70 to 90%,–,–,–,–,–,–
Oc1ccc2c(c1)C13CCN(CC4CC4)C(C2)C12CCC1C3[C@@H](CN1c1cnccn1)C2 (stereo partly shown) [Compound 257],–,–,–,–,70 to 90%,–,–,–,–,–,–
"Cc1cc(C)nc(N2C[C@H]3C[C@@]45CCC2C3[C@@]42CCN(CC3CC3)[C@@H]5Cc3cccc(O)c32)n1 (stereo partly drawn) [Compound 293, (1S,5aS,6R,11bS)-14-(cyclopropylmethyl)-3-(4,6-dimethylpyrimidin-2-yl)-2,3,3a,4,5,6,7,11c-octahydro-1H-6,11b-(iminoethano)-1,5a-methanonaphtho[1,2-e]indol-11-ol]",–,–,–,–,–,< 10 nM,91%,> 50 nM,51%,> 50 nM,17%
"O=C(c1ccccc1)N1C[C@H]2C[C@@]34CCC1C2[C@@]31CCN(CC2CC2)[C@@H]4Cc2ccccc21 (stereo partly drawn) [Compound 298, [(1S,5aS,6R,11bR)-14-(Cyclopropylmethyl)-4,5,6,7-tetrahydro-1H-6,11b-(iminoethano)-1,5a-methanonaphtho[1,2-e]indol-3(2H,3aH,11cH)-yl](phenyl)methanone]",–,–,–,–,≥ 90%,< 10 nM,102%,> 100 nM,32%,> 50 nM,16%
Cc1cc(C)nc(N2C[C@H]3CC45CCC2C3C42CCN(CC3CC3)C5Cc3ccccc32)n1 (stereo partly shown) [Compound 300],–,–,–,–,–,< 50 nM,105%,> 500 nM,39%,> 100 nM,26%
"NC(=O)c1ccc2c(c1)[C@]13CCN(CC4CC4)[C@H](C2)[C@]12CCC1C3[C@@H](CN1C(=O)c1ccccc1)O2 (stereo partly drawn) [Compound 306, (1S,5aS,6R,11bR)-3-benzoyl-14-(cyclopropylmethyl)-2,3,3a,4,5,6,7,11c-octahydro-1H-6,11b-(iminoethano)-1,5a-epoxynaphtho[1,2-e]indole-10-carboxamide]",–,–,2.8%,9.5%,–,< 10 nM,84%,–,–,–,–
"Nc1ccc2c(c1)[C@]13CCN(CC4CC4)[C@H](C2)[C@]12CCC1C3[C@@H](CN1C(=O)c1ccccc1)O2 (stereo partly drawn) [Compound 308, [(1S,5aS,6R,11bR)-10-Amino-14-(cyclopropylmethyl)-4,5,6,7-tetrahydro-1H-6,11b-(iminoethano)-1,5a-epoxynaphtho[1,2-e]indol-3(2H,3aH,11cH)-yl](phenyl)methanone]",–,–,2.5%,–,–,< 10 nM,94%,> 100 nM,38%,–,–
"COc1cc2c(cc1[N+](=O)[O-])C[C@H]1N(CC3CC3)CC[C@@]23C2C4CC[C@@]13C[C@@H]2CN4c1nc(C)cc(C)n1 (stereo partly drawn) [Compound 311, (1S,5aS,6R,11bR)-14-(cyclopropylmethyl)-3-(4,6-dimethylpyrimidin-2-yl)-10-methoxy-9-nitro-2,3,3a,4,5,6,7,11c-octahydro-1H-6,11b-(iminoethano)-1,5a-methanonaphtho[1,2-e]indole]",–,–,–,–,–,< 50 nM,82%,> 500 nM,16%,> 100 nM,18%
"Oc1ccc2c(c1)C13C(O)CN(CC4CC4)C(C2)C12CCC1C3[C@@H](CN1Cc1ccccc1)O2 (stereo partly drawn) [Compound 329, (1S,3aR,5aS,6R,11bS,11cS,12R)-3-Benzyl-14-(cyclopropylmethyl)-1,2,3a,4,5,6,7,11c-octahydro-1H-6,11b-(iminoethano)-1,5a-epoxynaphtho[1,2-e]indole-10,12-diol]",–,–,0.9%,–,–,< 1 nM,76%,> 10 nM,14%,–,–
"C[C@H]1[C@H]2C[C@@]34CC[C@H]([C@@H]2[C@]32CCN(CC3CC3)[C@@H]4Cc3ccc(O)cc32)N1C(=O)c1ccccc1 [Compound 334, [(1S,2S,3aR,5aS,6R,11bS,11cS)-14-(Cyclopropylmethyl)-10-hydroxy-2-methyl-1,2,3a,4,5,6,7,11c-octahydro-3H-6,11b-(iminoethano)-1,5a-methanonaphtho[1,2-e]indol-3-yl](phenyl)methanone]",–,–,2.9%,–,–,< 1 nM,87%,> 1 nM,39%,–,–
